Reference: PubChem BioAssay AID2060895 (Molecular Pharmacology Branch, DTP, NCI, 2025)

Test system: PDC 899932-113-R3-J6 complex spheroid viability
Test: Anticancer human tumor 899932-113-R3-J6-PDC patient-derived melanoma cell line growth inhibition [RAS]
Details: for IC50: curve of first compound; for viability, T/C: stronger effect = lower value
Description: RAS pathway inhibitors in Combinations in Complex Spheroids
A high-throughput screen of multi-cell type tumor spheroids was designed to identify active combinations of RAS pathway inhibitors and targeted small molecules. Complex spheroids include a stromal component modeled by human endothelial cells (HUVEC) and fibroblasts modeled by human mesenchymal stem cells (MSCs). The concentration ranges selected for each drug and investigational agent were based upon clinically achievable concentrations if the clinical Cmax of the agent was known.
Compounds. The drugs and investigational agents: abemaciclib (NSC768073), cobimetinib (NSC768068), divarasib (GDC6063, NSC841802), docetaxel (NSC628503), GDC-1971 (RLY-1971, NSC841576), gemcitabine (NSC613327), inavolisib (NSC800729), ipatasertib (NSC767898), KB-0742 (NSC834161), MRTX-1133 (NSC836407), osimertinib (NSC779217), RMC-4630 (NSC839698), RMC-6236 (NSC851965), RMC-6291 (NSC852671), Ro-3306 (NSC812927), sapanisertib (NSC764658), SN-38 (NSC673596), staurosporine (NSC755774), SY5609 (NSC837396), and tovorafenib (DAY101, NSC766906), were obtained from the National Cancer Institute (NCI) Developmental Therapeutics Program Chemical Repository. The FDA-approved anticancer drug set is available from the NCI Developmental Therapeutics Program. […] The stock solutions were prepared in dimethyl sulfoxide (DMSO, Sigma-Aldrich, St. Louis, MO, cat. D2650) at 800-fold the tested concentration and stored at -70 degrees C prior to their use. All drugs and investigational agents were tested over a range starting from a high concentration at or near the clinical Cmax and decreasing in half-log increments. If the clinical Cmax for an agent had not been determined, the highest concentration tested was 10 microM.
Cell Culture. All cells were maintained in an incubator at 37 degrees C and 5% CO2 with 95% humidity. The PDC lines were cultured according to standard operating procedures established by the NCI PDMR. All PDCs were thawed and cultured in Matrigel-coated flasks prepared with a working solution of 1X Ham's F-12 nutrient mix, without supplementation (Invitrogen, Waltham, MA, cat. 11765054), 100 U/mL penicillin-streptomycin (Invitrogen, cat. 15140122), and 2.5% Matrigel (Corning Inc., Corning, NY, cat. 354248) for the first three passages. The 362531-283-R-J2-PDC and 782815-120-R-J1-PDC lines were cultured in 6C/Colon 1B media, which includes advanced DMEM/F-12 (Thermo Fisher Scientific, cat. 12634028), 10 mM HEPES (Thermo Fisher Scientific, cat. 15630080), 1X GlutaMAX supplement (Thermo Fisher Scientific, cat. 35050061), 0.1 mg/mL primocin (InvivoGen, San Diego, CA, cat. ant-pm-2), 10% defined fetal bovine serum, heat inactivated (HyClone Laboratories Inc., Logan, UT, cat. SH30070.03HI), 50% L-WRN conditioned media (ATCC, cat. CRL-3276), 1.25 mM N-Acetyl-L-cysteine (Sigma-Aldrich, cat. A9165), 10 mM nicotinamide (Sigma-Aldrich, cat. N0636), 1X B-27 supplement (Thermo Fisher Scientific, cat. 17504044), 1X N-2 supplement (Thermo Fisher Scientific, cat. 17502048), 50 ng/mL human EGF (Thermo Fisher Scientific, cat. PHG0311), and 10 microM Y-27632 dihydrochloride (Tocris Bioscience, cat. 1254). The K12877-001-R-J1-PDC line was cultured in 6I media, which includes all 6C/Colon 1B media plus 10 ng/mL human FGF-10 (PeproTech, cat. 100-26), 1 ng/mL human FGF-2 (PeproTech, cat. 100-18B), 1 µM prostaglandin E2 (Tocris Bioscience, cat. 2296), […] hydrocortisone (Sigma-Aldrich, cat. H4001), and […] bovine insulin (Sigma-Aldrich, cat. I6634). The K86415-001-R-J1-PDC line was cultured in 6D media, which includes all 6C/Colon 1B media components minus the L-WRN conditioned media. The 485176-168-R4-J1-PDC was cultured in PANC media, which includes all 6C/Colon 1B media plus 100 ng/mL human FGF-10 (PeproTech, cat. 100-26), 500 nM SB-431542 (Selleckchem, cat. S1067), and 10 nM gastrin (Tocris Bioscience, cat. 3006). […]

[1] = second compound 0.0316 µM, first compound 0.0316 µM
[2] = second compound 0.0316 µM, first compound 0.1 µM
[3] = second compound 0.0316 µM, first compound 0.316 µM
[4] = second compound 0.0316 µM, first compound 1 µM
[5] = second compound 0.1 µM, first compound 0.0316 µM
[6] = second compound 0.1 µM, first compound 0.1 µM
[7] = second compound 0.1 µM, first compound 0.316 µM
[8] = second compound 0.1 µM, first compound 1 µM
[9] = second compound 0.316 µM, first compound 0.0316 µM
[10] = second compound 0.316 µM, first compound 0.1 µM
[11] = second compound 0.316 µM, first compound 0.316 µM
[12] = second compound 0.316 µM, first compound 1 µM
[13] = second compound 1 µM, first compound 0.0316 µM
[14] = second compound 1 µM, first compound 0.1 µM
[15] = second compound 1 µM, first compound 0.316 µM
[16] = second compound 1 µM, first compound 1 µM
[17] = second compound 3.16 µM, first compound 0.0316 µM
[18] = second compound 3.16 µM, first compound 0.1 µM
[19] = second compound 3.16 µM, first compound 0.316 µM
[20] = second compound 3.16 µM, first compound 1 µM
[21] = second compound 10 µM, first compound 0.0316 µM
[22] = second compound 10 µM, first compound 0.1 µM
[23] = second compound 10 µM, first compound 0.316 µM
[24] = second compound 10 µM, first compound 1 µM
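Wherever viability, T/C is given: spheroids exposed to agents for seven days before readout; 100% = DMSO vehicle control wells.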

## CC(Nc1ccc2c(c1)OCCn1cc(N3C(=O)OCC3C(F)F)nc1-2)C(N)=O (centres undefined) + C#Cc1c(F)ccc2cc(O)cc(-c3ncc4c(N5CC6CCC(C5)N6)nc(OCC56CCCN5CC(F)C6)nc4c3F)c12
Second compound 0.0316 µM
  IC50: 1.78 µM
Second compound 0.1 µM
  IC50: 2.61 µM
Second compound 0.316 µM
  IC50: 2.44 µM
Second compound 1 µM
  IC50: 2.24 µM
Second compound 3.16 µM
  IC50: 4.56 µM
Second compound 10 µM
  IC50: 2.76 µM
[1]
  viability, T/C: 88.4%
[2]
  viability, T/C: 87.2%
[3]
  viability, T/C: 58.2%
[4]
  viability, T/C: 58%
Second compound 0.0316 µM, first compound 3.16 µM
  viability, T/C: 47.4%
Second compound 0.0316 µM, first compound 10 µM
  viability, T/C: 30.6%
[5]
  viability, T/C: 88.8%
[6]
  viability, T/C: 78.6%
[7]
  viability, T/C: 70.1%
[8]
  viability, T/C: 57.3%
Second compound 0.1 µM, first compound 3.16 µM
  viability, T/C: 51.7%
Second compound 0.1 µM, first compound 10 µM
  viability, T/C: 35.1%
[9]
  viability, T/C: 97.7%
[10]
  viability, T/C: 83.3%
[11]
  viability, T/C: 66%
[12]
  viability, T/C: 63.5%
Second compound 0.316 µM, first compound 3.16 µM
  viability, T/C: 49.2%
Second compound 0.316 µM, first compound 10 µM
  viability, T/C: 33.8%
[13]
  viability, T/C: 93%
[14]
  viability, T/C: 76%
[15]
  viability, T/C: 64.9%
[16]
  viability, T/C: 61.5%
Second compound 1 µM, first compound 3.16 µM
  viability, T/C: 44.2%
Second compound 1 µM, first compound 10 µM
  viability, T/C: 39.8%
[17]
  viability, T/C: 101%
[18]
  viability, T/C: 76.6%
[19]
  viability, T/C: 71.4%
[20]
  viability, T/C: 65%
Second compound 3.16 µM, first compound 3.16 µM
  viability, T/C: 60.9%
Second compound 3.16 µM, first compound 10 µM
  viability, T/C: 38%
[21]
  viability, T/C: 102%
[22]
  viability, T/C: 90%
[23]
  viability, T/C: 70%
[24]
  viability, T/C: 63.9%
Second compound 10 µM, first compound 3.16 µM
  viability, T/C: 52.5%
Second compound 10 µM, first compound 10 µM
  viability, T/C: 32.5%

## O=C(c1ccc(F)c(F)c1Nc1ccc(I)cc1F)N1CC(O)([C@@H]2CCCCN2)C1 + C#Cc1c(F)ccc2cc(O)cc(-c3ncc4c(N5CC6CCC(C5)N6)nc(OCC56CCCN5CC(F)C6)nc4c3F)c12
Second compound 0.0316 µM
  IC50: 0.00897 µM
Second compound 0.1 µM
  IC50: 0.0101 µM
Second compound 0.316 µM
  IC50: 0.0121 µM
Second compound 1 µM
  IC50: 0.0109 µM
Second compound 3.16 µM
  IC50: 0.0108 µM
Second compound 10 µM
  IC50: 0.00902 µM
Second compound 0.0316 µM, first compound 0.00316 µM
  viability, T/C: 84.7%
Second compound 0.0316 µM, first compound 0.01 µM
  viability, T/C: 46.4%
[1]
  viability, T/C: 7.85%
[2]
  viability, T/C: 3.11%
[3]
  viability, T/C: 3.11%
[4]
  viability, T/C: 1.68%
Second compound 0.1 µM, first compound 0.00316 µM
  viability, T/C: 70.8%
Second compound 0.1 µM, first compound 0.01 µM
  viability, T/C: 50.3%
[5]
  viability, T/C: 7.58%
[6]
  viability, T/C: 3.19%
[7]
  viability, T/C: 2.68%
[8]
  viability, T/C: 1.61%
Second compound 0.316 µM, first compound 0.00316 µM
  viability, T/C: 77.1%
Second compound 0.316 µM, first compound 0.01 µM
  viability, T/C: 58.5%
[9]
  viability, T/C: 6.51%
[10]
  viability, T/C: 5.25%
[11]
  viability, T/C: 2.94%
[12]
  viability, T/C: 1.38%
Second compound 1 µM, first compound 0.00316 µM
  viability, T/C: 83.2%
Second compound 1 µM, first compound 0.01 µM
  viability, T/C: 53.4%
[13]
  viability, T/C: 7.2%
[14]
  viability, T/C: 3.22%
[15]
  viability, T/C: 2.12%
[16]
  viability, T/C: 2.67%
Second compound 3.16 µM, first compound 0.00316 µM
  viability, T/C: 77.6%
Second compound 3.16 µM, first compound 0.01 µM
  viability, T/C: 53.1%
[17]
  viability, T/C: 8.19%
[18]
  viability, T/C: 3.45%
[19]
  viability, T/C: 2.09%
[20]
  viability, T/C: 3.3%
Second compound 10 µM, first compound 0.00316 µM
  viability, T/C: 91.4%
Second compound 10 µM, first compound 0.01 µM
  viability, T/C: 46%
[21]
  viability, T/C: 8.65%
[22]
  viability, T/C: 6.24%
[23]
  viability, T/C: 2.33%
[24]
  viability, T/C: 2.35%
